We go through seven compounds from ChEMBL document CHEMBL3991601, “The target landscape of clinical kinase drugs” (Science, 2017).

Experiment [1] deals with Mitogen-activated protein kinase 14 (Homo sapiens, UniProt Q16539).
Experiment [2] deals with Platelet-derived growth factor receptor beta (Homo sapiens, UniProt P09619).
A further experiment deals with Ephrin type-A receptor 5 (Homo sapiens, UniProt P54756).
Another experiment deals with Deoxycytidine kinase (Homo sapiens, UniProt P27707).
Deoxycytidine kinase, sequence (P27707 whole entry): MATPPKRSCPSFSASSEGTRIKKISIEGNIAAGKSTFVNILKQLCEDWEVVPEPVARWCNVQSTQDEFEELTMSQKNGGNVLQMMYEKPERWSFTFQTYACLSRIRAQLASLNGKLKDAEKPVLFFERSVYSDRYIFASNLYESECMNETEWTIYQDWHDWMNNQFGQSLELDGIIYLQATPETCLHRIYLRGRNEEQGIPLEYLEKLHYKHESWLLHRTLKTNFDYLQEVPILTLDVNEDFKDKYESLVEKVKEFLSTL
Experiment [3] deals with Cyclin-dependent kinase 2 (Homo sapiens, UniProt P24941).
Experiment [4] deals with T1, Dual specificity mitogen-activated protein kinase kinase 5 (Homo sapiens, UniProt Q13163).
T1 sequence (Q13163 whole entry): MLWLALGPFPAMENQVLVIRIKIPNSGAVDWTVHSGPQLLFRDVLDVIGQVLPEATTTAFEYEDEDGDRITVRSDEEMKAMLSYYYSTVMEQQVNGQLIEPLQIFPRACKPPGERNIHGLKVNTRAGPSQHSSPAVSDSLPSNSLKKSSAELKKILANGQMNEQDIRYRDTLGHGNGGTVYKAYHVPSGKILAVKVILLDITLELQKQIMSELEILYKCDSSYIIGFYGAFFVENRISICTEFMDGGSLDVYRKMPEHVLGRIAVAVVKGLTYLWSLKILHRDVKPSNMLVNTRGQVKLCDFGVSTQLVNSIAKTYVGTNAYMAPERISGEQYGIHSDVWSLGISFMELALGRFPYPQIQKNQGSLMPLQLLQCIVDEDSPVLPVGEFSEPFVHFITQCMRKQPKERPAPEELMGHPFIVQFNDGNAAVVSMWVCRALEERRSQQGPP

Experiment [5] concerns the target Bone morphogenetic protein receptor type-1B (Homo sapiens, UniProt O00238).
The target in experiment [6] is Tyrosine-protein kinase Lyn (Homo sapiens, UniProt P07948).
Experiment [7] deals with Receptor-interacting serine/threonine-protein kinase 2 (Homo sapiens, UniProt O43353).
Experiment [8] has as its target Serine/threonine-protein kinase SIK2 (Homo sapiens, UniProt Q9H0K1).
The target in experiment [9] is DnaJ homolog subfamily A member 1 (Homo sapiens, UniProt P31689).
DnaJ homolog subfamily A member 1, sequence (P31689 whole entry): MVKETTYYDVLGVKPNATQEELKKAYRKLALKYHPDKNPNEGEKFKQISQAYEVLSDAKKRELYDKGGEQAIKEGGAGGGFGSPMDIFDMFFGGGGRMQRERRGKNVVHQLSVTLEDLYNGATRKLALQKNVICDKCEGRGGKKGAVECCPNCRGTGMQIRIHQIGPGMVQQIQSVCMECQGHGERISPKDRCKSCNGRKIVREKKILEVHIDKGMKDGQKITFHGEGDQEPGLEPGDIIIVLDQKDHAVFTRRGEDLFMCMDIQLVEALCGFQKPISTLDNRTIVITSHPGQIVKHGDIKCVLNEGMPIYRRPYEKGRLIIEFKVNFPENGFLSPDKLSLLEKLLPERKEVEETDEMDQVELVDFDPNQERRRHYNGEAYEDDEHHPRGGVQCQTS
In experiment [10] the target is Dual specificity testis-specific protein kinase 1 (Homo sapiens, UniProt Q15569).
Dual specificity testis-specific protein kinase 1, sequence (Q15569 whole entry): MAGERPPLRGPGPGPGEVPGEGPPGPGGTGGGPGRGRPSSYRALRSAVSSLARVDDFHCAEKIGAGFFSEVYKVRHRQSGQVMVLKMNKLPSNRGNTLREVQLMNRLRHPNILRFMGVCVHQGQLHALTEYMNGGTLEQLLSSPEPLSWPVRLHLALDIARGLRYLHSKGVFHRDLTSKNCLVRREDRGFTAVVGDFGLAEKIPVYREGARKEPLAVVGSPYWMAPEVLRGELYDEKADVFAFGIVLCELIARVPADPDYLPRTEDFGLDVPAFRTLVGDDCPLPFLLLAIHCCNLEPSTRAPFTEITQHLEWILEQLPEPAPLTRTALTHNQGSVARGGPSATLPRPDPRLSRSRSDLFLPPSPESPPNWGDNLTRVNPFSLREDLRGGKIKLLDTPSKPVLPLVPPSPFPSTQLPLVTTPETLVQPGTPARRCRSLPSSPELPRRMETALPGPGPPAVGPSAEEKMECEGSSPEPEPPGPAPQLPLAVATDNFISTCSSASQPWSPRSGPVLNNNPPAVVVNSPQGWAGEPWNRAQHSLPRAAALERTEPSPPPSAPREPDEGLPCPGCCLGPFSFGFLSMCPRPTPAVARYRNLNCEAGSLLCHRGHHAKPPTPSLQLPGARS
Experiment [11] concerns the target T2, Ras-related protein Rab-10 (Homo sapiens, UniProt P61026).
T2 sequence (P61026 whole entry): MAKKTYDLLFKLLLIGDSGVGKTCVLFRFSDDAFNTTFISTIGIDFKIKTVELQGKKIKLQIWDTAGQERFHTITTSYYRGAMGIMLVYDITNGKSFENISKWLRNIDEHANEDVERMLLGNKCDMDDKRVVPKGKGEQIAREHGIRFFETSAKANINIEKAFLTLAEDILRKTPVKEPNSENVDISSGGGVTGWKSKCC

The target of experiment [12] is Non-receptor tyrosine-protein kinase TYK2 (Homo sapiens, UniProt P29597).
Non-receptor tyrosine-protein kinase TYK2, sequence (P29597 whole entry): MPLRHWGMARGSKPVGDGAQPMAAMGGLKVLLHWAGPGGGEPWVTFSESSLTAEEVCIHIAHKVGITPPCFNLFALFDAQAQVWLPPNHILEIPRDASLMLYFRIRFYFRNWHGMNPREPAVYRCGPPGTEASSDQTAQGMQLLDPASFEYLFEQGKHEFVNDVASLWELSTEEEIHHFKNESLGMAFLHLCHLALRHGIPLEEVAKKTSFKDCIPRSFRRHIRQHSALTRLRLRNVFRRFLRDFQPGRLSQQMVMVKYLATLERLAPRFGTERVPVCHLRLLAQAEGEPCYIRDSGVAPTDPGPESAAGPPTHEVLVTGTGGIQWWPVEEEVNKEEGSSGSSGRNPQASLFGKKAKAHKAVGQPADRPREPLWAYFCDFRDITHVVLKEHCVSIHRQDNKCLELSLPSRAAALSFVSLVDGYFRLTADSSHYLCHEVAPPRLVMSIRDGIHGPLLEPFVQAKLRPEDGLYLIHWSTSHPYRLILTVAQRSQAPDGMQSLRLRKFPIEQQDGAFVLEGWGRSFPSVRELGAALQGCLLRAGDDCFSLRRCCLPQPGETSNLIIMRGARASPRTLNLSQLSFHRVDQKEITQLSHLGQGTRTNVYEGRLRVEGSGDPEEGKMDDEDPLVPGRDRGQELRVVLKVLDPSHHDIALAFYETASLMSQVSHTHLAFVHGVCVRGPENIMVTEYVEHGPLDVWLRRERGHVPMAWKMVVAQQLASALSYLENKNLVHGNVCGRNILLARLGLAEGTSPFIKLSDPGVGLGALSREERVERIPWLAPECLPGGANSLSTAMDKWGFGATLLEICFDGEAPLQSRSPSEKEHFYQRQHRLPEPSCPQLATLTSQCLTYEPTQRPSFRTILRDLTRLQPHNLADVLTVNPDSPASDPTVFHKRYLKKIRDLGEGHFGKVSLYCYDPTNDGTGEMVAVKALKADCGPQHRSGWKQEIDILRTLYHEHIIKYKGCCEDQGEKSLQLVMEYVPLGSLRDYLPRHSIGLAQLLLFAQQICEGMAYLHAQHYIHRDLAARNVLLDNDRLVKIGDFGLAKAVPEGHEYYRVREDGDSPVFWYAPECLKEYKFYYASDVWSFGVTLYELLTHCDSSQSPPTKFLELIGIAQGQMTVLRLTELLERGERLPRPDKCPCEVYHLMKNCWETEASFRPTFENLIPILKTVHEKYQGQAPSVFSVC
Experiment [13] concerns the target Mitogen-activated protein kinase kinase kinase kinase 5 (Homo sapiens, UniProt Q9Y4K4).
The target of experiment [14] is cAMP-dependent protein kinase catalytic subunit gamma (Homo sapiens, UniProt P22612).
cAMP-dependent protein kinase catalytic subunit gamma, sequence (P22612 whole entry): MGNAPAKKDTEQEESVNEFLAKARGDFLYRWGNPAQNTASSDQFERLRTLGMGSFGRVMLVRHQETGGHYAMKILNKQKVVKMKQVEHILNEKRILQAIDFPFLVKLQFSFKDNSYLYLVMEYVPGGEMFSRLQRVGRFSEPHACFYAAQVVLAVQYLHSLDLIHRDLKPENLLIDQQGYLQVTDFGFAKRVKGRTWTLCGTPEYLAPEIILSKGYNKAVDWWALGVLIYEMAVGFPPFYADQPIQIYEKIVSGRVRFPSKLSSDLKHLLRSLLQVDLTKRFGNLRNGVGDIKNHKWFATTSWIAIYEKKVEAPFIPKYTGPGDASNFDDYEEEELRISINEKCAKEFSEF
Experiment [15] addresses T3, Glycogen phosphorylase, liver form (Homo sapiens, UniProt P06737).
T3 sequence (P06737 whole entry): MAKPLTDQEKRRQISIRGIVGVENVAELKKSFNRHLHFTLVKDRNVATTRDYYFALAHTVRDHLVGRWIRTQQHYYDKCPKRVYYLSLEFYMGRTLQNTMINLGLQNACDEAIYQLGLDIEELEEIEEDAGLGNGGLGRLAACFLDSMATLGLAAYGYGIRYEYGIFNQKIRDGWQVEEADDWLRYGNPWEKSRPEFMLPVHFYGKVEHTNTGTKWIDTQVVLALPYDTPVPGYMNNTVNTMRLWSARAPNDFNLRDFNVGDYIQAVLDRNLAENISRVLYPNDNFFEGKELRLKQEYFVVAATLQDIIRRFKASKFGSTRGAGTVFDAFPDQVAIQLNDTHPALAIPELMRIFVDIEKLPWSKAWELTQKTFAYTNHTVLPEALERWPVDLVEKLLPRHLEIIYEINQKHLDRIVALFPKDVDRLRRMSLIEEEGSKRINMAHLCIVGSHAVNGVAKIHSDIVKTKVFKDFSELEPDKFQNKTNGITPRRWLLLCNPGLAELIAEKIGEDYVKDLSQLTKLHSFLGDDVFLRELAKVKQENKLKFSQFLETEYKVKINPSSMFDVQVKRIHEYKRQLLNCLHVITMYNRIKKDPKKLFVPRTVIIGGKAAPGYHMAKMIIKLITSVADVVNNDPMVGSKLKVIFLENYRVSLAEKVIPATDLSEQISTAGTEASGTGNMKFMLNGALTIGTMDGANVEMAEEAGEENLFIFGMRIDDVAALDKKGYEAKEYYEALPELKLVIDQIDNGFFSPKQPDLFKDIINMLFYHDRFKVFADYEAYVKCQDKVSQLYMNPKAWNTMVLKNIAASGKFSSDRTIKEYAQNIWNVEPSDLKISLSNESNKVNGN
Format: subcellular, K-562, COLO 205, SK-N-BE(2) and MV-4-11, Cell lysate. Particulars: read-out: Kd apparent.

pKd: −log10 of the molar value. Calls of active or inactive are those of the source. Rule as the data show it, for most assays here: actives have a measured Kd and inactives only a lower limit. Bounds are passed on as bounds.
Also: in the data inactive means no Kd found up to 30 µM.

Platelet-derived growth factor receptor beta, sequence (P09619 whole entry): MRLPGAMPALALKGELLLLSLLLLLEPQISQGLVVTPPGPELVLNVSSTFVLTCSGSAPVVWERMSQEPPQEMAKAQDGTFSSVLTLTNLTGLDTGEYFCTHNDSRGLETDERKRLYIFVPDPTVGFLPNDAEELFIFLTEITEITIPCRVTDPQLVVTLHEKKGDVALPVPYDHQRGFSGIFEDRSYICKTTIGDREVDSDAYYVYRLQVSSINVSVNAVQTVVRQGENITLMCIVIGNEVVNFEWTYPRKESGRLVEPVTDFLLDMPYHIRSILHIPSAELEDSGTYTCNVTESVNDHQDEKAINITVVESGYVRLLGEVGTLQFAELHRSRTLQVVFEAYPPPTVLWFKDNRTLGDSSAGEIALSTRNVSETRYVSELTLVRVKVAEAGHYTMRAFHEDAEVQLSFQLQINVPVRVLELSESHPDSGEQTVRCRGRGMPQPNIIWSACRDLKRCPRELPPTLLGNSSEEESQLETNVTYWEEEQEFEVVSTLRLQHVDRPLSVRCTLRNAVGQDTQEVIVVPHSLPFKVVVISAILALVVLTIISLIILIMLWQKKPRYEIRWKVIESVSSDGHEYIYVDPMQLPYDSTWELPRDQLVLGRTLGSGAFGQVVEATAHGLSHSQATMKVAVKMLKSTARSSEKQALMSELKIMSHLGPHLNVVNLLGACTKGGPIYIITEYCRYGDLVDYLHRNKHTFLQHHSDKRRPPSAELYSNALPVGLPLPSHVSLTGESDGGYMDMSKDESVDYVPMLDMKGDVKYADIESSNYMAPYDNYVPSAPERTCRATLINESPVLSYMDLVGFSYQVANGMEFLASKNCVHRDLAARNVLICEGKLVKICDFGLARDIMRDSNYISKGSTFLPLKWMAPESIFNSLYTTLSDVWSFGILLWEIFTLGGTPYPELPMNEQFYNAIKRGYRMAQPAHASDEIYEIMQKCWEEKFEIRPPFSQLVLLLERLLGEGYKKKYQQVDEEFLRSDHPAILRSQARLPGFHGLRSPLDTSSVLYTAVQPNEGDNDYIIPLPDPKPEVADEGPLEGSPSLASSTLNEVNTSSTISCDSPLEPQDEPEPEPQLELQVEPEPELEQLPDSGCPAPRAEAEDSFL
Serine/threonine-protein kinase SIK2, sequence (Q9H0K1 whole entry): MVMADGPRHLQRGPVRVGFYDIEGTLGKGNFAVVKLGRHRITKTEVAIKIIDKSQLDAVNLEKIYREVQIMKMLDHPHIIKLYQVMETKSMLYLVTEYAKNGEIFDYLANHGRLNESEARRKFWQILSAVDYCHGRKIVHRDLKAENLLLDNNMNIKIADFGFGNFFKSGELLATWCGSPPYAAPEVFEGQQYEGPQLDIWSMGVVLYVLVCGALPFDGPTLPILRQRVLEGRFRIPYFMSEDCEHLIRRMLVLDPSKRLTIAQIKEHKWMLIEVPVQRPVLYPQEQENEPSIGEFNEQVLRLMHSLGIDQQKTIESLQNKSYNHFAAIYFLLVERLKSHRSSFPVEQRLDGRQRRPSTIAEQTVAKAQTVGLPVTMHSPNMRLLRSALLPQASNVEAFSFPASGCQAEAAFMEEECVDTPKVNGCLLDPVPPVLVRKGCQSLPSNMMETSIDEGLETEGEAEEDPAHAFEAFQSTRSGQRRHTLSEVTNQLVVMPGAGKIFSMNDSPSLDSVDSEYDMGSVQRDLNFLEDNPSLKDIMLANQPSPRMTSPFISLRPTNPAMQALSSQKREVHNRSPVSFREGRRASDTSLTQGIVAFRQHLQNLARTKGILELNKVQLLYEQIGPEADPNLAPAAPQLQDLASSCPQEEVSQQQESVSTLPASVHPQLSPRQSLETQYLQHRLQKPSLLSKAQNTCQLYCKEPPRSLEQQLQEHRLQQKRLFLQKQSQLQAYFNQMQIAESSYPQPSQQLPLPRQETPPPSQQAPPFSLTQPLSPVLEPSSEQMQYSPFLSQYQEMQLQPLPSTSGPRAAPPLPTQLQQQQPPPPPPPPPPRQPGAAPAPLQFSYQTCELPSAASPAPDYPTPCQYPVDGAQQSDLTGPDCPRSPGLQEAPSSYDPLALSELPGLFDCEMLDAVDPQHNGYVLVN

`C#Cc1cccc(Nc2ncnc3cc(OC)c(OCCCCCCC(=O)NO)cc23)c1` [CUDC-101]: the Kd (in [1]; in experiment [2]; at Ephrin type-A receptor 5; on Deoxycytidine kinase; in experiment [3]; in experiment [4]) was > 30 µM (inactive) each time. The Kd in experiment [5] is > 30 µM (inactive); in experiment [6], > 30 µM (inactive); in [7], 1.09 µM (active); in experiment [8], > 30 µM (inactive); in experiment [9] it was > 30 µM (inactive); in [10], > 30 µM (inactive). Further, the Kd in experiment [11], in [12], in experiment [13], in experiment [14] and in experiment [15] was > 30 µM (inactive) throughout.

As for `Cc1cccc(-c2nn3c(c2-c2ccnc4ccc(C(N)=O)cc24)CCC3)n1` [GALUNISERTIB], the Kd (in [1]; in [2]; on Ephrin type-A receptor 5; on Deoxycytidine kinase; in experiment [3]; in [4]) was > 30 µM (inactive) each time. For the same compound, the Kd in [5] is > 30 µM (inactive); in experiment [6] it was > 30 µM (inactive); in experiment [7], 0.038 µM (active); in experiment [8], > 30 µM (inactive); in experiment [9] it was > 30 µM (inactive); in [10] it was > 30 µM (inactive). The Kd in [11], in [12], in experiment [13], in experiment [14] and in experiment [15] was > 30 µM (inactive) in each case.

For the compound `COc1ccc(S(=O)(=O)N(C(C)=O)c2ccccc2/C=C/c2cc[n+]([O-])cc2)cc1` [HMN-214], the Kd (in experiment [1]; in [2]; at Ephrin type-A receptor 5; on Deoxycytidine kinase; in [3]; in experiment [4]) was > 30 µM (inactive) each time. Also, the Kd in [5], in experiment [6], in experiment [7], in experiment [8], in experiment [9] and in experiment [10] was > 30 µM (inactive) in each case. Moreover, the Kd in [11], in experiment [12], in [13], in [14] and in experiment [15] was > 30 µM (inactive) throughout.

Consider `NC1(c2ccc(-c3nc4ccn5c(=O)[nH]nc5c4cc3-c3ccccc3)cc2)CCC1` [MK-2206], for which the Kd (in experiment [1]; in experiment [2]; on Ephrin type-A receptor 5; on Deoxycytidine kinase; in experiment [3]; in experiment [4]) was > 30 µM (inactive) in each case. The Kd in experiment [5], in [6], in experiment [7], in experiment [8], in experiment [9] and in experiment [10] was > 30 µM (inactive) in each case. For the same compound, the Kd in experiment [11], in experiment [12], in [13], in [14] and in experiment [15] was > 30 µM (inactive) in each case.

For the compound `CN(C[C@@H]1COCCO1)S(=O)(=O)Nc1ccc2ccc3ncc(-c4cnn(C)c4)cc3c(=O)c2c1` [MK-2461], the Kd (in experiment [1]; on Ephrin type-A receptor 5; on Deoxycytidine kinase; in experiment [3]; in [4]; in experiment [5]) was > 30 µM (inactive) each time. The Kd in experiment [6], in [7], in experiment [8], in experiment [9], in experiment [10] and in experiment [11] was > 30 µM (inactive) throughout. Moreover, the Kd in experiment [12], in experiment [13], in experiment [14] and in experiment [15] was > 30 µM (inactive) throughout. This compound also showed a negative logarithm of the Kd (pKd) in [2] of 6.27.

As for `Cn1cc(-c2cnc3ccc4ccc(CS(=O)(=O)NCc5ccccn5)cc4c(=O)c3c2)cn1` [MK-8033], the Kd (in experiment [1]; in [2]; at Ephrin type-A receptor 5; at Deoxycytidine kinase; in [3]; in experiment [4]) was > 30 µM (inactive) in each case. Moreover, the Kd in experiment [5], in experiment [6], in [7], in experiment [8], in [9] and in experiment [10] was > 30 µM (inactive) in each case. Further, the Kd in [11], in [12], in [13], in experiment [14] and in experiment [15] was > 30 µM (inactive) in each case.

As for `FC(F)(F)c1ccc(/C=C/c2nc(COc3ccc(CCCCn4ccnn4)cc3)co2)cc1` [MUBRITINIB], the Kd (in [1]; in experiment [2]; on Ephrin type-A receptor 5; on Deoxycytidine kinase; in experiment [3]; in experiment [4]) was > 30 µM (inactive) throughout. For the same compound, the Kd in experiment [5], in experiment [6], in experiment [7], in [8], in [9] and in [10] was > 30 µM (inactive) in each case. The Kd in experiment [11], in experiment [12], in experiment [13], in experiment [14] and in [15] was > 30 µM (inactive) in each case.

One may read the pKd as the Kd on a negative log10 scale, so that one unit is a factor of ten. Low values mean a high Kd, high ones a low Kd.
